Read-outs that look alike come from different tables or passages of the source.
Columns and labels:
[1] = test system: HCV genotype 1a replicon; experiment: HCV replicon luciferase reporter assay, genotype 1a (LE_1a); type: cell-based; conditions: Hepatitis C virus, 72 h, HUH-7 cells, genotype 1a H77 replicon, 3 days incubation, Renilla luciferase
[2] = test system: HCV genotype 1b replicon; experiment: HCV replicon luciferase reporter assay, genotype 1b (LE_1b); type: cell-based; conditions: Hepatitis C virus, 72 h, HUH-7 cells, genotype 1b (Con1) replicon, 3 days incubation, Renilla luciferase
Outline: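 HUH-7 cells stably carrying Renilla luciferase replicons (1b Con1 with S1179I; 1a H77 with P1496L and S2204I), 3.0×10^3 cells/well in 4% FCS, 0.5% DMSO, twenty-point 3-fold titration. After 3 days at 37° C., luminescence read with EnduRen (7.5 μM final, 2 hrs). EC50 from four-parameter logistic fit; CC50 from multiplexed Cell Titer-Blue (8 hrs).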

| SMILES | EC50 ([1]; read-out: LE_1a (EC50, range)) [nM] | EC50 ([2]; read-out: LE_1b (EC50, range)) [nM] | EC50 ([1]; read-out: LE_1a (EC50)) [nM] | EC50 ([2]; read-out: LE_1b (EC50)) [nM] |
| --- | --- | --- | --- | --- |
| Cc1cn2c(n1)nc(O[C@@H]1C[C@H]3C(=O)N[C@]4(C(=O)NS(=O)(=O)C5(CF)CC5)C[C@H]4/C=C\CC[C@@H](C)C[C@@H](C)[C@H](NC(=O)OC(C)(C)C(C)(F)F)C(=O)N3C1)c1cc(Cl)ccc12 [Compound 6141] | 5.01 to 35 | 1.01 to 5 |  |  |
| C[C@@H]1CC/C=C\[C@@H]2C[C@@]2(C(=O)NS(=O)(=O)C2(C)CC2)NC(=O)[C@@H]2C[C@@H](Oc3nc4cc(C(=O)OC(C)(C)C)ccc4nc3C(F)(F)F)CN2C(=O)[C@@H](NC(=O)OC(C)(C)C(C)(F)F)[C@H](C)C1 [Compound 7001, tert-butyl 3-(((2R,6S,7R,9R,13aS,14aR,16aS,Z)-6-((((3,3-difluoro-2-methylbutan-2-yl)oxy)carbonyl)amino)-7,9-dimethyl-14a-(((1-methylcyclopropyl)sulfonyl)carbamoyl)-5,16-dioxo-1,2,3,5,6,7,8,9,10,11,13a,14,14a,15,16,16a-hexadecahydrocyclopropa[e]pyrrolo[1,2-a][1,4]diazacyclopentadecin-2-yl)oxy)-2-(trifluoromethyl)quinoxaline-6-carboxylate] | 1.01 to 5 | 0.51 to 1 |  |  |
| Cc1cnc(-c2ccc3nc(C(F)(F)F)c(O[C@@H]4C[C@H]5C(=O)N[C@]6(C(=O)NS(=O)(=O)C7(C)CC7)C[C@H]6/C=C\CC[C@@H](C)C[C@@H](C)[C@H](NC(=O)OC(C)(C)C(F)(F)F)C(=O)N5C4)nc3c2)o1 [Compound 7002] | 1.01 to 5 | 0.51 to 1 |  |  |
| CC[C@@H]1C[C@H](C)CC/C=C\[C@@H]2C[C@@]2(C(=O)NS(=O)(=O)C2(C)CC2)NC(=O)[C@@H]2C[C@@H](Oc3nc4cc(-c5ncc(C)o5)ccc4nc3C(F)(F)F)CN2C(=O)[C@H]1NC(=O)OC(C)(C)C(F)(F)F [Compound 7003] | 1.01 to 5 | 0.51 to 1 | 3.7 | 0.8 |

From patent US9643999B2 (Bristol-Myers Squibb Company, priority 2012, dated 2017)
